The values below come from paper PMC11068671, “New-generation biofilm effective antimicrobial peptides and a real-time anti-biofilm activity assay: CoMIC” (Applied Microbiology and Biotechnology, 2024).

≈ marks a conversion by molar mass, not a printed value. Non-standard residues stand in square brackets, D forms with d. Residues, ends and D or L forms follow the SMILES beside them. No end group written: not given here. A value given as a limit tells only on which side of the number the result lay.

One data set deals with Proteinase K (Parengyodontium album, UniProt P06873). Briefly: Protease resistance, Proteinase K treatment with HPLC analysis. It counts as in vitro ADME. The following applies: analytical HPLC. As to the method: Proteinase K was used for testing the resistance of the designed peptides to proteases, since Proteinase K, a serine protease with broad-spectrum cleavage activity that preferentially cleaves aliphatic and aromatic amino acid residues, is widely used in the literature to determine the protease resistance of antimicrobial peptides (Lucio et al. [2017], Wang et al. [2019]). Afterwards, HPLC characterization was performed to understand the effect of Proteinase K on peptides.

In a further data set the test system is E. coli. Briefly: SEM of cell membrane integrity. It is filed as cell-based. The following applies: 16 µg/mL peptide, 10^5 CFU/mL, 37°C, 4–5 h. As to the method: The effect of NET1 peptides on the integrity of E. coli cell membranes was shown by SEM (Wang et al. [2018]). […] Peptide molecules were mixed with 10^5 CFU/mL of E. coli and incubated at 37°C for 4–5 h. […] After incubation, 20 µL of the mixture containing peptide antibiotics and bacteria was applied to a dialysis membrane. Then, it was fixed and imaged by the SEM microscope. As a negative control, bacteria which was not treated with peptide molecules were also used.

The next data set has as its system HaCaT cell line. Briefly: in vitro. It counts as cell-based. From the text: (§1) MTT Cell Proliferation Kit (Sigma), a colorimetric method, was used for this test to evaluate the damage that peptides can cause in eukaryotic cells and all cell lines used in this study have been deposited in a collection of the Research Laboratory of Acibadem Mehmet Ali Aydinlar University. The cell lines of 3T3 (ATCC CRL-1658) and HaCaT (ATCC PCS-200-011) were revived under appropriate culture conditions and made ready for the experiment. The final concentration of peptides reached 64 to 0.5 μg/mL. Samples were worked in triplicates for each concentration. Cells incubated without peptide-treatment under the same conditions were used as a control. Magainin II, a known natural AMP that has no cytotoxic effects, was used as a positive control (Bacalum and Radu [2015]). The results were analyzed by reading them with a 96-well plate reader at 550 and 690 nm.

For another data set, the system named is 3T3 cell line. Briefly: in vitro. It counts as cell-based.
Text: as §1

A short description of another data set: in vitro. It is filed as cell-based.
Text: as §1

For the next data set, the system named is erythrocytes. It is filed as cell-based. How it is done: Hemolytic activity assays were carried out using erythrocytes, using triton X-100 as lysis control agent. Hemolytic activities were analyzed by reading each well with a plate reader spectrophotometer device at 414 nm and the % lysis rate was calculated in Microsoft Excel according to the following formula (Eren et al. [2008]). Lysis%=[OD414-OD414blank]/[OD414totallysis-OD414blank]×100

For another data set, the system named is VRE. It is filed as cell-based, Vancomycin-resistant Enterococcus. From the text:
(§2) NET1, NET2, NET3, and NET4 peptide antibiotics were used in the experiments. For the purpose of the study, both clinical isolates Methicillin-Resistant S. aureus (MRSA), Vancomycin-resistant Enterococcus (VRE), E. coli ER2566, E. coli 13846 bacteria and ATCC strains S. aureus and E. coli bacteria were used in the MIC study. All strains used in this study have been deposited in a strain collection of the Research Laboratory of Acibadem Mehmet Ali Aydinlar University. For experiment 0.5 McFarland bacterial suspension was prepared in Müeller Hinton Broth (MHB) media. In the 96-well plate, serial dilutions of peptide antibiotics starting from 512 to 0 μg/mL were made in MHB media and added 5 µl of bacterial suspensions. After incubated overnight at 37°C, results were evaluated according to turbidity (Teh et al. [2017]). Ampicillin was used as positive controls.

The test system of a further data set is E. coli ER2566. It is filed as cell-based.
Text: as §2

A further data set has as its system S. aureus ATCC25923. It is filed as cell-based.
Text: as §2

A further data set deals with E. coli NTCC13846. It counts as cell-based.
Text: as §2

Another data set deals with E. coli ATCC25922. It is filed as cell-based.
Text: as §2

A further data set has as its system S. aureus ATCC29213. It is filed as cell-based.
Text: as §2

The next data set concerns MRSA. It counts as cell-based, Methicillin-Resistant S. aureus.
Text: as §2

Data set [1] relates to MRSA biofilm. Briefly: Antibiofilm activity, conventional crystal violet (CV) method. It is filed as cell-based, Methicillin-resistant S. aureus. As to the method: There was 90 µL of 10^6 CFU/mL MRSA in MHB media with fructose transferred into wells. Then, 10 µL of 1:2 serial dilutions of the antimicrobial peptides (1280–0 µg/mL) was added in wells. So that, final concentrations of peptides were 128–0 µg/mL. Plates were incubated at 37°C overnight. After overnight incubation, they were analyzed with conventional CV method. For this purpose, the bacterial cultures were removed, and wells were washed with distilled water. 200 µl of 1% CV dye was added to each well and incubated at room temperature for 15 min in the dark. Then, CV dye was removed, and wells were washed with water. After dried the plate in an oven at 45–50°C, 33% acetic acid was added into wells to dissolve the dye and wells were spectrophotometrically read by Varioscan (Thermo, USA) at 590 nm (Stepanović et al. [2000]). Biofilm inhibiton rates (%) were calculated by the following formula (Liu et al. [2021]): (1-A590ofwellstreatedwithpeptides/[…])×100
Before this calculation, the values obtained from all wells were subtracted from the value from the empty wells (Blank).

Data set [2] concerns MRSA biofilm. Briefly: Antibiofilm activity, CoMIC method. It counts as cell-based, Methicillin-resistant S. aureus. Particulars: peptides added just before the start of biofilm formation. How it is done:
Ninety microliters of 0.5 McF Methicillin-resistant S. aureus (MRSA) (1.5×10^8 CFU/mL) in Congo Red Broth media with fructose was transferred into wells. Plates were incubated at 37°C. At the time just before the start of biofilm formation as optimized in Fig. 4, 10 µL of 1:2 serial dilutions of the antimicrobial peptides (2560–0 µg/mL) was added in wells. So that, final concentrations of peptides were 256–0 µg/mL. Incubation of media continued overnight. Then, wells were evaluated according to their black color formation.

The subject of a further data set is Staphylococcus aureus. The arrangement: method as in Dean et al. [2011]. The following applies: ref Dean et al. [2011]; cited from earlier work.

Proteinase K, sequence (P06873 106-384): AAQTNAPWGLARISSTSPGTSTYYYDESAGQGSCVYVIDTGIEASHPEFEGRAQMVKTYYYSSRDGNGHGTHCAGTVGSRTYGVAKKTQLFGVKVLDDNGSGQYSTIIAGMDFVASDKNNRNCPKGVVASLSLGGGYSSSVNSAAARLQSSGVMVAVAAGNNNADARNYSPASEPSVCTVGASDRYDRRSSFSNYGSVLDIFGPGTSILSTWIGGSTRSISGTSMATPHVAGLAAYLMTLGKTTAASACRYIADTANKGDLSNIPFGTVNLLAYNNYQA

On to `CC(C)C[C@@H](NC(=O)[C@H](CCCNC(=N)N)NC(=O)[C@@H](CC(C)C)NC(=O)[C@@H](CC(C)C)NC(=O)[C@@H](CC(C)C)NC(=O)[C@@H](N)CCCNC(=N)N)C(=O)N[C@H](CC(C)C)C(=O)N[C@@H](CCCNC(=N)N)C(=O)N[C@@H](CCCNC(=N)N)C(=O)N[C@H](CC(C)C)C(=O)N[C@H](CC(C)C)C(=O)N[C@@H](CCCNC(=N)N)C(=O)N[C@H](CC(C)C)C(=O)N[C@H](CC(C)C)C(=O)N[C@H](CC(C)C)C(=O)N[C@@H](CCCNC(=N)N)C(N)=O` [NET1, RLLLRLLRRLLRLLLR-NH2] (H-R[dL][dL][dL]R[dL][dL]RR[dL][dL]R[dL][dL][dL]R-NH2; N-terminus assumed), for which the “resistance to proteases (HPLC after proteinase K treatment)” value on Proteinase K is reported as “not fractionated by proteases”. In the data set on E. coli, the “effect on E. coli cells seen by SEM” value is on record as “lethal to E. coli”. In the data set on HaCaT cell line, the “IC50 value as times the MIC value” is recorded as 16-32 times. The results for the “therapeutic index for cytotoxic activities” value with HaCaT cell line and in the data set on 3T3 cell line were 32 and 16, respectively. Moreover, the IC50 in the data set “in vitro” (human) came out at 64 mg/L (≈ 30.7 µM); in the data set “in vitro” (mouse) it was 32 mg/L (≈ 15.3 µM). The “HC50 value as times the MIC value” in the data set on erythrocytes is 16–32 times. Also, the “therapeutic index for hemolytic activities” value with erythrocytes is 32. The MIC against VRE was 0.5 mg/L (≈ 0.24 µM); against E. coli ER2566, under 0.25 mg/L; with S. aureus ATCC25923 it was 4 mg/L (≈ 1.92 µM); in the data set on E. coli NTCC13846, 4 mg/L (≈ 1.92 µM); in the data set on E. coli ATCC25922, 2 mg/L (≈ 0.959 µM); against S. aureus ATCC29213, 2 mg/L (≈ 0.959 µM). Also, in the data set with MRSA, the minimum inhibitory concentration (MIC) came out at 2 mg/L (≈ 0.959 µM). For the same compound, the “concentration that provided over 50% biofilm inhibition” value in the data set on MRSA biofilm [1] (CV method) is given as 2 µg/mL. Moreover, the “Peptide concentration inhibiting the biofilm at 100%, Crystal Violet” value in the data set with MRSA biofilm [1] (peptides added at the very beginning of culture) is 4 µg/mL. For the same compound, the “Peptide concentration inhibiting the biofilm at 100%, CoMIC” value with MRSA biofilm [2] is recorded as 64 µg/mL.

On to “LL-37: LL-37 peptide, only D-form compared with only L-form in a cited study (LLGDFFRKSKEKIGKEFKRIVQRIKDFLRNLVPRTES; not fully specified; also: all-D and all-L forms; UniProt P49913 134-170, looked up)”, for which, in the data set with Staphylococcus aureus, the “activity of the D-form, times lower than L-form” value is 10 times.

Usually IC50 stands for the midpoint of a concentration-inhibition curve. A lower IC50 goes with inhibition by little substance. A word on the MIC: it is the smallest concentration in the dilution series that meets the test's criterion for growth inhibition. A high value points to weaker potency.
